From patent US20250221966A1, “RXFP1 AGONISTS” (BRISTOL-MYERS SQUIBB COMPANY, priority 2021, published 2025)
pEC50: −log10 of the molar value.

Biological target: T1, human RXFP1 (Homo sapiens, UniProt Q9HBX9)
T1 construct: expressed in transfected cells
T1 sequence (Q9HBX9 1-757): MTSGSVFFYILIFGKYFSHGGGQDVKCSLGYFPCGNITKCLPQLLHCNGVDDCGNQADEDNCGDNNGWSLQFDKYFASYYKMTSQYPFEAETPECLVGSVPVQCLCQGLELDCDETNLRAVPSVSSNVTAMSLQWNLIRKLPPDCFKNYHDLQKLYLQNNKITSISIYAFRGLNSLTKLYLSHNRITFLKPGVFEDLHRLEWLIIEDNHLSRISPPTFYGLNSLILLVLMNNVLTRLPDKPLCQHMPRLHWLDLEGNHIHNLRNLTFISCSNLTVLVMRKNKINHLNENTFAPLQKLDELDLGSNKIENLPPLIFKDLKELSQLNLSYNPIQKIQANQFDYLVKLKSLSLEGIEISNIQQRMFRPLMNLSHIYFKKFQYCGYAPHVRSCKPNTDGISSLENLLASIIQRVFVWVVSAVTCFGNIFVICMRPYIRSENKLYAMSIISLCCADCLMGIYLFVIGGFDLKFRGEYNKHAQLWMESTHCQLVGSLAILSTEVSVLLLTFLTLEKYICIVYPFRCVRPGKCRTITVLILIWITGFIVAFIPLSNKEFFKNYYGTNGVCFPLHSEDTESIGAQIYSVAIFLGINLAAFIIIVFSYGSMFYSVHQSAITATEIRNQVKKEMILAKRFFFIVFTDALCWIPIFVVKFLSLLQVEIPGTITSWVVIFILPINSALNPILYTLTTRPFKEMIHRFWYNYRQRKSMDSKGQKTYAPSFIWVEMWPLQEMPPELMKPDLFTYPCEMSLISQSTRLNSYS
Experiment: RXFP1 cAMP assay (hRXFP1 HEK293 cAMP assay, HTRF)
Format: cell-based
Conditions: HEK293 cells stably expressing human RXFP1, 30 min at room temperature, read-out: cAMP hRXFP1 HEK293 Assay EC50
In short: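 hRXFP1-HEK293 stable line; HBSS + Ca/Mg, 20 mM HEPES, 0.05% BSA, 0.5 mM IBMX; cpd 0.010 nM–50 μM, 2% DMSO; 30 min RT; lysis, HTRF cAMP detection; 4-PL fit.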

Row | pEC50 | SMILES
1 | 8.39 | COc1ccc(-c2cc(C(NC(=O)C3CCOCC3)C(=O)O)ccc2F)cc1C(=O)N[C@H]1[C@@H](C(=O)Nc2ccc(F)c(C(F)(F)F)c2)[C@H]2CC[C@@H]1/C2=C\CCC(F)(F)F (stereo partly drawn) [compound 940]
2 | 8.46 | COc1ccc(-c2ncc(CO)s2)cc1C(=O)N[C@H]1[C@@H](C(=O)Nc2ccc(F)c(C(F)(F)F)c2)[C@H]2CC[C@@H]1/C2=C\C1CCCC1 [compound 750]
3 | 8.21 | COc1ccc(-c2cc([C@@H](NC(=O)C3CCOCC3)C(F)(F)F)ccc2F)cc1C(=O)N[C@H]1[C@@H](C(=O)Nc2ccc(F)c(C(F)(F)F)c2)[C@H]2CC[C@@H]1/C2=C\C1CCCC1 [compound 956]
4 | 8.60 | COc1ccc(-c2cc(C(OC(=O)NC(C)(C)C)C(=O)O)ccc2F)cc1C(=O)N[C@H]1[C@@H](C(=O)Nc2ccc(F)c(C(F)(F)F)c2)[C@H]2CC[C@@H]1/C2=C\C1CC(F)(F)C1 (stereo partly drawn) [compound 935]
5 | 8.14 | COc1ccc(C2=NOC3C(O)CCC23)cc1C(=O)N[C@H]1[C@@H](C(=O)Nc2ccc(F)c(C(F)(F)F)c2)[C@H]2CC[C@@H]1/C2=C\C1CC1 (single isomer, unassigned) [compound 483]
6 | 8.96 | COc1ccc(-c2cc([C@H](OC(=O)NC3CC3)C(F)(F)F)ccc2F)cc1C(=O)N[C@H]1[C@@H](C(=O)Nc2ccc(F)c(C(F)(F)F)c2)[C@H]2CC[C@@H]1/C2=C\C(C)C [compound 930]
7 | 5.71 | O=C(O)c1ccc(F)c(-c2ccc(OCCN3CCOCC3)c(C(=O)N[C@H]3[C@@H](C(=O)Nc4ccc(F)c(C(F)(F)F)c4)[C@H]4CC[C@@H]3/C4=C\C(F)(F)F)c2)c1 [Example 320, 6-fluoro-3′-(((1R,2R,3S,4R,Z)-3-((4-fluoro-3-(trifluoromethyl)phenyl)carbamoyl)-7-(2,2,2-trifluoroethylidene)bicyclo[2.2.1]heptan-2-yl)carbamoyl)-4′-(2-morpholinoethoxy)-[1,1′-biphenyl]-3-carboxylic acid]
8 | 8.82 | COc1ccc(-c2cc(C3=NOC4CC(CO)CC34)ccc2F)cc1C(=O)N[C@H]1[C@@H](C(=O)Nc2ccc(F)c(C(F)(F)F)c2)[C@H]2CC[C@@H]1/C2=C\C1CCCC1 (stereo partly drawn) [compound 952]
9 | 9.40 | COc1ccc(-c2cc([C@H](OC(=O)NC3CC3)C(F)(F)F)ccc2F)cc1C(=O)N[C@H]1[C@@H](C(=O)Nc2ccc(F)c(C(F)(F)F)c2)[C@H]2CC[C@@H]1/C2=C\C1CCCC1 [compound 927]
10 | 8.28 | COc1ccc(-c2cc([C@H](OC(=O)NC3CCC3)C(F)(F)F)ccc2F)cc1C(=O)N[C@@H]1C2CCC(/C2=C/C(C)C)[C@@H]1C(=O)Nc1ccc(F)c(C(F)(F)F)c1 (stereo partly drawn) [compound 925]
11 | 8.85 | COc1ccc(-c2cc([C@H](OC(=O)NC3CC3)C(F)(F)F)ccc2F)cc1C(=O)N[C@H]1[C@@H](C(=O)Nc2ccc(F)c(C(F)(F)F)c2)[C@H]2CC[C@@H]1/C2=C\CCC(F)(F)F [compound 928]

Second part, the molecule before the results:

Row | SMILES | pEC50
12 | COc1cc(F)c(F)cc1C(=O)N[C@@H]1C2CCC(/C2=C/c2ccccc2)[C@@H]1C(=O)Nc1cccc(S(C)(=O)=O)c1 (stereo partly drawn) [compound 139] | 6.26
13 | COc1c(F)cc(C2=NOC3CC(CO)CC23)cc1C(=O)N[C@H]1[C@@H](C(=O)N[C@H](C)C2(C)CC(F)(F)C2)[C@H]2CC[C@@H]1/C2=C\C1CC1 (stereo partly drawn) [compound 870] | 8.66
14 | COc1ccc(C2CC3CN(C(=O)OC(C)(C)C)CC32)cc1C(=O)N[C@H]1[C@@H](C(=O)Nc2ccc(F)c(C(F)(F)F)c2)[C@H]2CC[C@@H]1/C2=C\C1CC1 (single isomer, unassigned) [compound 730] | 6.58
15 | COc1ccc(C2=NOC3CC(CO)CC23)cc1C(=O)N[C@H]1[C@@H](C(=O)Nc2ccc(F)c(C(F)(F)F)c2)[C@H]2CC[C@@H]1/C2=C\c1cnc(C)s1 (stereo partly drawn) [compound 804] | 8.40
16 | COc1c(F)cc(C2=NOC3CC(CO)CC23)cc1C(=O)N[C@H]1[C@@H](C(=O)N[C@H](C)C23CC(C2)C3)[C@H]2CC[C@@H]1/C2=C\C1CC1 (stereo partly drawn) [compound 776] | 8.30
17 | COc1ccc(C2=NOC3CC(C#N)CC23)cc1C(=O)N[C@H]1[C@@H](C(=O)Nc2ccc(F)c(C(F)(F)F)c2)[C@H]2CC[C@@H]1/C2=C\C1CC1 (stereo partly drawn) [compound 506] | 7.90
18 | COc1ccc(C2=NOC(CCO)C2)cc1C(=O)N[C@@H]1C2CCC(/C2=C/C2CCC2)[C@@H]1C(=O)Nc1ccc(F)c(C(F)(F)F)c1 (stereo partly drawn) [compound 400] | 7.51
19 | COc1ccc(C#N)cc1C(=O)N[C@H]1[C@@H](C(=O)Nc2ccc(F)c(C(F)(F)F)c2)[C@H]2CC[C@@H]1C2=C(C)C [compound 99] | 6.27
20 | O=C(N[C@H]1[C@@H](C(=O)Nc2ccc(F)c(C(F)(F)F)c2)[C@H]2CC[C@@H]1/C2=C\C1CC1)c1cccc(C2=NOC3CC(O)CC23)c1 (stereo partly drawn) [compound 628] | 6.75
21 | COc1ccc(C2=NOC3COCC23)cc1C(=O)N[C@H]1[C@@H](C(=O)NC2Cc3ccccc3C2)[C@H]2CC[C@@H]1/C2=C\C1CC1 (stereo partly drawn) [compound 610] | 6.88
22 | O=C(N[C@H]1[C@@H](C(=O)Nc2ccc(F)c(C(F)(F)F)c2)[C@H]2CC[C@@H]1/C2=C\C1CC1)c1cccc(C2=NOC3COCC23)c1 (single isomer, unassigned) [compound 647] | 6.62
23 | COc1ccc(C2=NO[C@H]3COC[C@@H]23)cc1C(=O)N[C@H]1[C@@H](C(=O)Nc2ccc(F)c(C(F)(F)F)c2)[C@H]2CC[C@@H]1/C2=C\CC1CCC1 [compound 829] | 8.47
24 | CCC=C1C2CCC1[C@H](C(=O)Nc1ccc(F)c(C(F)(F)F)c1)[C@@H]2NC(=O)c1cc(F)c(F)cc1OC (stereo partly drawn) [compound 47] | 7.33
25 | O=C(N[C@H]1[C@@H](C(=O)Nc2ccc(F)c(C(F)(F)F)c2)[C@H]2CC[C@@H]1/C2=C\C1CC1)c1cc(C2=NOC3COCC23)ccc1F (single isomer, unassigned) [compound 677] | 6.30
26 | O=C(N[C@H]1[C@@H](C(=O)Nc2ccc(F)c(C(F)(F)F)c2)[C@H]2CC[C@@H]1/C2=C\C1CC1)c1cc(C2=NOC3CC(CO)CC23)ccc1OCCCF (stereo partly drawn) [compound 788] | 8.37
27 | COc1ccc(-c2cc(C(=O)O)ccc2F)cc1C(=O)N[C@@H]1C2CCC(/C2=C/C2CC2)[C@@H]1C(=O)NC1CCc2ccccc2C1 (stereo partly drawn) [compound 299] | 6.64
28 | COc1ccc(C2=NOC3COCC23)cc1C(=O)N[C@H]1[C@@H](C(=O)NCCC(C)(C)C)[C@H]2CC[C@@H]1/C2=C\C1CC1 (stereo partly drawn) [compound 612] | 6.87
29 | COc1c(F)cc(-c2cnc3n2CC(O)CC3)cc1C(=O)N[C@H]1[C@@H](C(=O)Nc2ccc(F)c(C(F)(F)F)c2)[C@H]2CC[C@@H]1/C2=C\C1CC1 (stereo partly drawn) [compound 751] | 8.66
30 | COc1ccc(C2CCCN2C(=O)OC(C)(C)C)cc1C(=O)N[C@@H]1C2CCC(/C2=C/C2CC2)[C@@H]1C(=O)Nc1ccc(F)c(C(F)(F)F)c1 (single isomer, unassigned) [compound 694] | 6.10
31 | COc1cc(C)c(-c2nnc(CO)s2)cc1C(=O)N[C@H]1[C@@H](C(=O)N[C@H](C)C2(C)CC2)[C@H]2CC[C@@H]1/C2=C\C1CC1 [compound 810] | 8.33
32 | COc1ccc(-c2ccc(N3CCOCC3)nc2)cc1C(=O)N[C@H]1[C@@H](C(=O)Nc2ccc(F)c(C(F)(F)F)c2)[C@H]2CC[C@@H]1C2=C(C)C [compound 81] | 7.41
33 | CCC(NC(=O)[C@@H]1[C@H](NC(=O)c2cc(C3=NOC4COCC34)ccc2OC)[C@@H]2CC[C@H]1/C2=C/C1CC1)c1ccccc1C (single isomer, unassigned) [compound 652] | 6.56
